Some results are limits rather than exact numbers.

The target of one assay is G2019S LRRK2 (Homo sapiens, UniProt Q5S007, G2019S). In words: DiscoveRx KINOMEscan binding constant (Kd). More on the design: purchased DiscoveRx (KINOMEscan service); host or cells: E. coli BL21-derived host (T7 phage) or HEK-293. To be noted: numeric value. Here is the method: Compounds of formulas (II), (I), (I-A), (I-B), (I-C), (I-D), (I-D-1), (I-D-2), (I-E), (I-F), (I-G), (I-H), (I-I), (I-I-1), (I-I-2), (I-J), (I-K), (I-L), (I-M), (I-N), (I-Z-1), (I-Z-2), (I-Z-2-a), (I-Z-2-b), (I-Z-2-c), (I-Z-2-d), (I-Z-3-a), (I-Z-3-b), (I-Z-3-c), or (I-Z-3-d) were tested using DiscoveRx's KINOMEscan™ technology to measure a binding constant (Kd) to wild type and G2019S LRRK2. Kinase-tagged T7 phage strains were prepared in an E. coli host derived from the BL21 strain. E. coli were grown to log-phase and infected with T7 phage and incubated with shaking at 32° C. until lysis. The lysates were centrifuged and filtered to remove cell debris. The remaining kinases were produced in HEK-293 cells and subsequently tagged with DNA for qPCR detection. Streptavidin-coated magnetic beads were treated with biotinylated small molecule ligands for 30 minutes at room temperature to generate affinity resins for kinase assays. The liganded beads were blocked with excess biotin and washed with blocking buffer (SeaBlock (Pierce), 1% BSA, 0.05% Tween 20, 1 mM DTT) to remove unbound ligand and to reduce non-specific binding. Binding reactions were assembled by combining kinases, liganded affinity beads, and test compounds in 1× binding buffer (20% SeaBlock, 0.17×PBS, 0.05% Tween 20, 6 mM DTT). All reactions were performed in polystyrene 96-well plates in a final volume of 0.135 ml. The assay plates were incubated at room temperature with shaking for 1 hour and the affinity beads were washed with wash buffer (lx PBS, 0.05% Tween 20). The beads were then re-suspended in elution buffer (lx PBS, 0.05% Tween 20, 0.5 μM non-biotinylated affinity ligand) and incubated at room temperature with shaking for 30 minutes. The kinase concentration in the eluates was measured by qPCR. An 11-point 3-fold serial dilution of each test compound was prepared in 100% DMSO at 100× final test concentration and subsequently diluted to 1× in the assay (final DMSO concentration=[…]). Most Kds were determined using a compound top concentration=30,000 nM.
Sequence of G2019S LRRK2 (Q5S007 whole entry G2019S): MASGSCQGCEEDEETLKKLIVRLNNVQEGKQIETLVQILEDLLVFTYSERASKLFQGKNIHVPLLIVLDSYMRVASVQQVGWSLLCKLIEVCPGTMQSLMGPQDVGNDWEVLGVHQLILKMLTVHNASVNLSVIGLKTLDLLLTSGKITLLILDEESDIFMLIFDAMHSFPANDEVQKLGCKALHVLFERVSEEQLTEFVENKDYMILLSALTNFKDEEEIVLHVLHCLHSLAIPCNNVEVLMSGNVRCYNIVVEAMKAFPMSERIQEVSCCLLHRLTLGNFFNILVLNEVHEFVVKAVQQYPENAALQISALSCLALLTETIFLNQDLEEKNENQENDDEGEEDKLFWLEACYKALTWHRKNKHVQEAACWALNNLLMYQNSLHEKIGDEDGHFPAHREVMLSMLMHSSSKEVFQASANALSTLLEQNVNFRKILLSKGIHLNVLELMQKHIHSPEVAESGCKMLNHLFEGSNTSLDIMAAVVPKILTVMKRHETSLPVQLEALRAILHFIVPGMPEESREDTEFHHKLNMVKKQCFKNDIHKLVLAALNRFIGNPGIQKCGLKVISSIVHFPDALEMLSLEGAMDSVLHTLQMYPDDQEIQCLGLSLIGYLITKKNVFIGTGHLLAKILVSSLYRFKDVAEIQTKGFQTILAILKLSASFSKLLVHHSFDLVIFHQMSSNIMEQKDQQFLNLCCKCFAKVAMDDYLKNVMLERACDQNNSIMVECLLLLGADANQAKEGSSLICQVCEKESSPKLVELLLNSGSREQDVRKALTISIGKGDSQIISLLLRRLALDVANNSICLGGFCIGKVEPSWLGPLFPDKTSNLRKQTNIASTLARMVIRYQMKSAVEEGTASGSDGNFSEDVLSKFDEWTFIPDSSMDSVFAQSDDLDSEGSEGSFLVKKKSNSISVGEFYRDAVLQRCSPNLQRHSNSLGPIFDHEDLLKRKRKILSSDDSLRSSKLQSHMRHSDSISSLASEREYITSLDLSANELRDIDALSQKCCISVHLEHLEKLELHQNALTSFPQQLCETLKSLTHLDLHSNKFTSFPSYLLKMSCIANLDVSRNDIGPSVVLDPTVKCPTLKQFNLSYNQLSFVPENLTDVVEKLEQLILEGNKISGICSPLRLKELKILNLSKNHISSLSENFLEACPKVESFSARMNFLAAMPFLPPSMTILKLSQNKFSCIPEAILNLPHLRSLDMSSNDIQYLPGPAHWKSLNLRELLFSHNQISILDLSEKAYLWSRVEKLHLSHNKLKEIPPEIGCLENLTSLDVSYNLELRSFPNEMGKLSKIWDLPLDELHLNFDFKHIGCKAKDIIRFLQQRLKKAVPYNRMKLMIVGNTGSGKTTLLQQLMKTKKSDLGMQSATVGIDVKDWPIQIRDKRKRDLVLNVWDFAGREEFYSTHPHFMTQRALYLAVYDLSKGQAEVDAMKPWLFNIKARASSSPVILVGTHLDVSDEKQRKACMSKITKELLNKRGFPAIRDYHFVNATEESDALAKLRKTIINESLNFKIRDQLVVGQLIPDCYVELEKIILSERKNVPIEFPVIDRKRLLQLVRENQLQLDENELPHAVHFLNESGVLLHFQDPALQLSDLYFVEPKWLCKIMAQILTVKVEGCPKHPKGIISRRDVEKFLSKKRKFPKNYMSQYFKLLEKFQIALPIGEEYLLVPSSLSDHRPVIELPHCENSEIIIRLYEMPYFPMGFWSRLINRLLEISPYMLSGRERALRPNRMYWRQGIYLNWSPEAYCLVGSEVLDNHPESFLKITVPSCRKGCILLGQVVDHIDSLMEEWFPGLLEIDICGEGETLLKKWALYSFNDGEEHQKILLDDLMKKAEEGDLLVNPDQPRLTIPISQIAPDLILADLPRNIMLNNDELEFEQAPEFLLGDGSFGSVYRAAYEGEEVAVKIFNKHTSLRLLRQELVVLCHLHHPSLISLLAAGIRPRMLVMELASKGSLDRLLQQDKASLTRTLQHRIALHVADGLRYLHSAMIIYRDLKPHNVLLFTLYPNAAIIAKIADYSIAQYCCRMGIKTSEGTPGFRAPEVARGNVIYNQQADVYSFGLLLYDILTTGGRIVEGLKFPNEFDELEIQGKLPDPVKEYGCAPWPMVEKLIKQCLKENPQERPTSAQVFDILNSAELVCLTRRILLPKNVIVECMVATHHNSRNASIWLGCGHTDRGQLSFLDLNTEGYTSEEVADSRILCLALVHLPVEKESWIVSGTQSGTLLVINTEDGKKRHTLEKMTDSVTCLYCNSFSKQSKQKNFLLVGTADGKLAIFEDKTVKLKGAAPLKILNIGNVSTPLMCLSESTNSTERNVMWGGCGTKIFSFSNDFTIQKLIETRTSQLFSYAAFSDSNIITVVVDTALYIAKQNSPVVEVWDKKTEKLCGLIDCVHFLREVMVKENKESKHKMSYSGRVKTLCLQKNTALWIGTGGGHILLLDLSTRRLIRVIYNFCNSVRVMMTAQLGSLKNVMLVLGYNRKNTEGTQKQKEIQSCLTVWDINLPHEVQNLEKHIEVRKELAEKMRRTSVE

For another assay, the target named is IKKbeta (Homo sapiens, UniProt O14920). In words: Kinase selectivity panel: IKKbeta. It counts as biochemical.
The next assay concerns the target PAK4 (Homo sapiens, UniProt O96013). In words: Kinase selectivity panel: PAK4. It counts as biochemical.
In another assay the target is CDK5/p35 (Homo sapiens, UniProt Q00535). The assay is described as follows: Kinase selectivity panel: CDK5/p35. The format is biochemical.
Sequence of CDK5/p35 (Q00535 whole entry, species assumed): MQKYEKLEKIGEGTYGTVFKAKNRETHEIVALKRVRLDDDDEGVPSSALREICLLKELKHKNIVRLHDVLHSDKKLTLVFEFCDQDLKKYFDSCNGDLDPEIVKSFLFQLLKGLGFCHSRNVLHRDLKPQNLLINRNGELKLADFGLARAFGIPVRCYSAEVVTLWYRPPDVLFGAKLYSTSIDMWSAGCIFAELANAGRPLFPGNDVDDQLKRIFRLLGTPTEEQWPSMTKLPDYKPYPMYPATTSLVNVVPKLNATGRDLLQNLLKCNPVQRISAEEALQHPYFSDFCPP
Sequence of CDK5/p35 (Q15078 whole entry partner, species assumed): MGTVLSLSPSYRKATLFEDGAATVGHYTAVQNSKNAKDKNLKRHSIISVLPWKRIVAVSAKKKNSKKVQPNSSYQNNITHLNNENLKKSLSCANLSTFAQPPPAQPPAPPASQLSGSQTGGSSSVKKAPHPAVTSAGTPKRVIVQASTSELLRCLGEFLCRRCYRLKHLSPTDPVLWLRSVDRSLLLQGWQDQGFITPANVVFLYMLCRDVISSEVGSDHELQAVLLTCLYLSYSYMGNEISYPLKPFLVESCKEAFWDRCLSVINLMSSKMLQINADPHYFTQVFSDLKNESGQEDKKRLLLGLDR
A further assay concerns the target PDGFRbeta (Homo sapiens, UniProt P09619). The assay is described as follows: Kinase selectivity panel: PDGFRbeta. It counts as biochemical.
A further assay concerns the target RET (Homo sapiens, UniProt P07949). In words: Kinase selectivity panel: RET. It counts as biochemical.
In another assay the target is PKC beta1 (Homo sapiens, UniProt P05771). The assay is described as follows: Kinase selectivity panel: PKC beta1. The format is biochemical.
A further assay addresses mTOR (Homo sapiens, UniProt P42345). The assay is described as follows: Kinase selectivity panel: mTOR. It counts as biochemical.
The target in another assay is FLT3 (Homo sapiens, UniProt P36888). The assay is described as follows: Kinase selectivity panel: FLT3. It counts as biochemical.
The next assay has as its target EGFR (Homo sapiens, UniProt P00533). In words: Kinase selectivity panel: EGFR. The format is biochemical.
The target of the next assay is P38 alpha (Homo sapiens, UniProt Q16539). In words: Kinase selectivity panel: P38 alpha. The format is biochemical.
The next assay concerns the target FGFR1 (Homo sapiens, UniProt P11362). In words: Kinase selectivity panel: FGFR1. It counts as biochemical.
In a further assay the target is Tie2 (Homo sapiens, UniProt Q02763). The assay is described as follows: Kinase selectivity panel: Tie2. The format is biochemical.
Sequence of Tie2 (Q02763 23-1124, species assumed): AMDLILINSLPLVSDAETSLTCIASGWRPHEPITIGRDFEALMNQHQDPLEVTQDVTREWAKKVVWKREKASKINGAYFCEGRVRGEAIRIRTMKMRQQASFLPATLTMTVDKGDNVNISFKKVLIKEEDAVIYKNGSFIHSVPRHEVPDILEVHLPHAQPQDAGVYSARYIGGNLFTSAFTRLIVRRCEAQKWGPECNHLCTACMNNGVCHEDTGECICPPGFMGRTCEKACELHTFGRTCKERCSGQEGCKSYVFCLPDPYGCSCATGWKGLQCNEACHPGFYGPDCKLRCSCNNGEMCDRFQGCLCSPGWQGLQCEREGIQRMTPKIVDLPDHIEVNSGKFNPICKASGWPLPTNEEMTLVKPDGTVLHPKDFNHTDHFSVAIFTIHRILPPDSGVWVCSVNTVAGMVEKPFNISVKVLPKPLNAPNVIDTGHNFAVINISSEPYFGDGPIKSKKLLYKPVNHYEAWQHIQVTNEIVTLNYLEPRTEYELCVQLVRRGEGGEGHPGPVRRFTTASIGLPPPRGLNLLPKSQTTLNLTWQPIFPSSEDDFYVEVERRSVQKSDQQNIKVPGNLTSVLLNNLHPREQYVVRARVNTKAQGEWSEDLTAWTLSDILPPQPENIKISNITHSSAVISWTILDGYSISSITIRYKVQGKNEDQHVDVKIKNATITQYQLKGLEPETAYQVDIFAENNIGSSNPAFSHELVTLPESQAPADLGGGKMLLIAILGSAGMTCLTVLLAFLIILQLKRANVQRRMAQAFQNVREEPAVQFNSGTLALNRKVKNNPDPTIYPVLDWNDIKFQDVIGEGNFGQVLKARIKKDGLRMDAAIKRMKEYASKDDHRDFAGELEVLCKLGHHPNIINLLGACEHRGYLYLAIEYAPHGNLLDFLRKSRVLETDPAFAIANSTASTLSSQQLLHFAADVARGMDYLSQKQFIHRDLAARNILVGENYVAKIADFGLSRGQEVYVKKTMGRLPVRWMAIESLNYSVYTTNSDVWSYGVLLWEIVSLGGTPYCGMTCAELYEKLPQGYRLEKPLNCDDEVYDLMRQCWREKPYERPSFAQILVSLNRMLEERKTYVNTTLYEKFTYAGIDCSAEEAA

Sequence of FGFR1 (P11362 22-822, species assumed): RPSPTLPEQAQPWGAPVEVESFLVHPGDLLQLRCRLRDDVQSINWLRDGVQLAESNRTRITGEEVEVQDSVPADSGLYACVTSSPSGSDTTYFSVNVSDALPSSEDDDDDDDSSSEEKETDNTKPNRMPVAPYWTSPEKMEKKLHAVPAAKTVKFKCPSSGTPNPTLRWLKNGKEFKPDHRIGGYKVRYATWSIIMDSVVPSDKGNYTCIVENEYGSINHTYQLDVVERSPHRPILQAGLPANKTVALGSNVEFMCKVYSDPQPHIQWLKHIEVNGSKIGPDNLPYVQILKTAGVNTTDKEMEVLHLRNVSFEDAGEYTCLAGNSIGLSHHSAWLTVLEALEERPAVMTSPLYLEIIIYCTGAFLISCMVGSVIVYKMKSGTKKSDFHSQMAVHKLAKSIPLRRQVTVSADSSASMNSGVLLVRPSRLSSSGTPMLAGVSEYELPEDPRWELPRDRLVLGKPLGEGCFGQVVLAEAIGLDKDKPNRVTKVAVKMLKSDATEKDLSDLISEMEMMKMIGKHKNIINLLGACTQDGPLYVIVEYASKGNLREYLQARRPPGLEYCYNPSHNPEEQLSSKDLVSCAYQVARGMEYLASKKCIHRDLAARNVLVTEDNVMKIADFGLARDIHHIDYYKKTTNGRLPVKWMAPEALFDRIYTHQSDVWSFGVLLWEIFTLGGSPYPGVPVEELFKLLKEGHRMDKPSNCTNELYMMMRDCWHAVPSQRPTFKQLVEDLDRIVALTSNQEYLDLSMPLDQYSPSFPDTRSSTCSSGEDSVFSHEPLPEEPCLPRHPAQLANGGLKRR

As to `COc1ccc2c(c1)/C(=C/c1cnc(C3CCOCC3)[nH]1)C(=O)N2` [Compound 18, (3Z)-5-methoxy-3-[(2-tetrahydropyran-4-yl-1H-imidazol-5-yl)methylene]indolin-2-one], binding on G2019S LRRK2 was put at a Kd of 95 nM. Besides, the inhibition (as a rule, the drop in the measured response relative to a control, in per cent) at 0.1 µM amounted to 7% on IKKbeta; 1% on PAK4; 1% against CDK5/p35 (@0.1 uM); 4% against PDGFRbeta; 3% against RET; 4% against PKC beta1. The inhibition at 0.1 µM against mTOR was 12%; against FLT3, 8%; at EGFR, -3%; on P38 alpha it was 12%; on FGFR1, 9%; against Tie2, -2%. For the same compound, the IC50 (as a rule, the concentration that gives 50% inhibition) at CDK5/p35 is over 10000 nM.

For the origin of these results see patent US20140205537A1, “LRRK2 INHIBITORS” (ZENOBIA THERAPEUTICS, INC., priority 2011, published 2014).
